Reference: patent US11091445B2, “Compounds, process for obtaining the compounds, pharmaceutical composition, use of the compounds and method for treating psychiatric disorders and/or sleep disorders” (Aché Laboratórios Farmacêuticos S.A., priority 2016, dated 2021)

Columns and labels:
melatonin receptors = conditions: literature (Depreux et al. 1994); cited from earlier work
[1] = system: cryopreserved hepatocytes from rats (Sprague-Dawley males); test: Intrinsic clearance in cryopreserved rat hepatocytes; assay type: in vitro ADME; conditions: 37° C.
Method: (§1) Cryopreserved hepatocytes from humans, rats (Sprague-Dawley males) and from mice (CD-1 males) were used for incubation at different times (0, 0.5, 1, 1.5, 2 hours) at 37° C. followed by HPLC-MS/MS detection. The aim was to verify the clearance time of the test substance on hepatocytes. The experiment was performed on a 96-well plate and the cryopreserved hepatocytes were thawed and resuspended in Krebs-Heinslet buffer (pH 7.3). The reaction was started by adding each test compound to each cell suspension and performing the incubation at the times indicated above. The reaction was quenched with addition of acetonitrile in the wells and detection by HPLC-MS/MS (mass spectrometry). MS/MS is performed by combining two mass detectors into a single instrument.

[2] = Pharmacokinetics in CD-1 mouse, I.V. and oral; assay type: in vivo; conditions: intravenous
Method: PK tests were performed with CD-1 mice, using 4 animals per molecule tested, 2 animals for pharmacokinetic analysis by intravenous (IV) administration and 2 animals for oral administration. The treatment was carried out in a single dose: I.V. group with dose of 1 mg/kg and Oral group with dose of 10 mg/kg. […] Blood collection was performed after euthanasia at 08 defined time points and at 24 hours post-dose. The pharmacokinetic analysis parameters detected for Group IV were: half-life (t½), drug concentration at time zero (C0), last measurable plasma concentration (AUClast), area under the plasma concentration curve extrapolation percentage (AUC % ext), area under the plasma concentration curve extrapolation to infinity (AUCinf), volume of distribution (Vz), steady state volume of distribution (Vss), clearance (CL) and mean residence time (MRT). The parameters evaluated for the Oral group were: bioavailability (F %), maximum concentration reached (Cmax), time to reach maximum plasma concentration (Tmax), last measurable plasma concentration (AUClast), area under the plasma concentration curve extrapolation percentage (AUC % ext), area under the plasma concentration curve extrapolation to infinity (AUCinf), area under the plasma concentration curve extrapolation to infinity versus dose (AUCinf/Dose), half-Life (t½), and mean residence time (MRT).

[3] = system: cryopreserved hepatocytes from mice (CD-1 males); test: Intrinsic clearance in cryopreserved mouse hepatocytes; assay type: in vitro ADME; conditions: 37° C.
Method: as §1

[4] = system: cryopreserved human hepatocytes; test: Intrinsic clearance in cryopreserved human hepatocytes; assay type: in vitro ADME; conditions: 37° C.
Method: as §1

CYP1A2 [5] = target: T1, CYP1A2 (Homo sapiens (Human), UniProt P05177); test: CYP inhibition, fluorogenic substrate; assay type: in vitro ADME
Source text: The CYP inhibition test used fluorogenic substrates specific to each CYP to check for inhibition thereof by detection of the expected metabolite using a fluorimetric method. Recombinant CYPs (CYP2B6, CYP2C8, CYP2C9, CYP2C9, CYP2C19, CYP2D6, CYP3A4) from specific humans for each cytochrome family, subfamily and polypeptide were used. The following were used as substrates: CEC (3-Cyano-7-Ethoxycoumarin) which forms as metabolite CHC (3-Cyano-7-Hydroxycoumarin); EFC (7-Ethoxy-4-trifluoromethyl coumarin), forming the metabolite HFC (7-Hydroxytrifluoromethylcoumarin); DBF (Dibenzylfluorescein) and its respective fluorescein metabolite; MFC (7-Methoxy-4-trifluoromethylcoumarin) which forms the metabolite HFC (7-Hydroxytrifluoromethylcoumarin); BFC (7-Benzyloxy-Trifluoromethylcoumarin) and its metabolite HFC; and BzRes (benzyloxyresorufin) to form resofurine. The detection of the metabolite was done with a fluorimetric method: analytical technique to identify and characterize the amount of substance by excitation using a beam of ultraviolet light and measurement of the emitted fluorescence. For detection, a 96-well plate was used. […] Incubations were performed between 20-50 minutes at 37° C. according to the specific parameter of each fluorogenic substrate, for the evaluated component. Fluorescence at each well was detected before and after the incubation period.

MT2 receptor = MT2 receptor (Homo sapiens (Human), UniProt P49286); test: MT2 functional assay; assay type: cell-based
CYP1A2 [6] = target: T1, CYP1A2; conditions: cited from earlier work
CYP2C9 and CYP2C19 = conditions: cited from earlier work
MT1 receptor = MT1 receptor (Homo sapiens (Human), UniProt P48039); test: MT1 functional assay
MT1 receptor, sequence (P48039 whole entry): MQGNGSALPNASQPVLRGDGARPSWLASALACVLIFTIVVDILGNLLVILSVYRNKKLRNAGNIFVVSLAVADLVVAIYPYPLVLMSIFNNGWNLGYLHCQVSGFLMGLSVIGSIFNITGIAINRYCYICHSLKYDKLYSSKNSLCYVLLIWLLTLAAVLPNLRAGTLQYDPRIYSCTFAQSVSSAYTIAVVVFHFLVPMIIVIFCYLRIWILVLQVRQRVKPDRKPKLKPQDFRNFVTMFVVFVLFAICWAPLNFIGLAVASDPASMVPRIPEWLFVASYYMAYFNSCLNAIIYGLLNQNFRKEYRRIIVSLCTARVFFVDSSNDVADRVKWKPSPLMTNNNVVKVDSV

T1 sequence (P05177 whole entry): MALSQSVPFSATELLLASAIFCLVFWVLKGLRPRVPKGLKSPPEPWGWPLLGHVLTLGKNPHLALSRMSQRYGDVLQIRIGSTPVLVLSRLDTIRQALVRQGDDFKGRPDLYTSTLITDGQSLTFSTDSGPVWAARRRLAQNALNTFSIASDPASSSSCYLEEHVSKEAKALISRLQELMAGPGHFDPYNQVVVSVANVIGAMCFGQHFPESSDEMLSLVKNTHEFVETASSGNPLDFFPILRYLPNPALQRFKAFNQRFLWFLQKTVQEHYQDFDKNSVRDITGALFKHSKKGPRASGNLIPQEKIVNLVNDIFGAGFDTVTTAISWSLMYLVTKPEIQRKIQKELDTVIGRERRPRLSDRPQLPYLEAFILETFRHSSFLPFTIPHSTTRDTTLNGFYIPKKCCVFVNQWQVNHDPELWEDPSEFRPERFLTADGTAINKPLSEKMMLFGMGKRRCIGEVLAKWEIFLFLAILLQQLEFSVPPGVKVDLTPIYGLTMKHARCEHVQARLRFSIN
MT2 receptor, sequence (P49286 whole entry): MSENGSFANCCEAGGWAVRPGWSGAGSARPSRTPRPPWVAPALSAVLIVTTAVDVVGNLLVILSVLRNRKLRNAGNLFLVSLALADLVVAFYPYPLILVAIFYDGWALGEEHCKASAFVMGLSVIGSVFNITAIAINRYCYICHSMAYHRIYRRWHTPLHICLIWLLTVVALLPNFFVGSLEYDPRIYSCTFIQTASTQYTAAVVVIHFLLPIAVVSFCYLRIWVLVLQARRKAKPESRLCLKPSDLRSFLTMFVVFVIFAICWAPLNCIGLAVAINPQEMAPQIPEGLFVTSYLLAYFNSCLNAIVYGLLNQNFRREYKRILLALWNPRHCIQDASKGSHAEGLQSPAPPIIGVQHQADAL

Row | SMILES | affinity lower than melatonin affinity (melatonin receptors) | Intrinsic clearance half-life, Rat Sprague-Dawley hepatocytes [1] | C0 compared to agomelatine [2] | Clearance compared to agomelatine [2] | Intrinsic clearance half-life, Mouse CD-1 hepatocytes [3] | Intrinsic clearance half-life, Human hepatocytes [4] | affinity to CYP isoforms, specially CYP1A2 (CYP1A2 [5]) | intrinsic activity at MT2 (MT2 receptor) | fraction metabolized in the liver by CYP1A2 (CYP1A2 [6]) | fraction metabolized by CYP2C9 and CYP2C19 (CYP2C9 and CYP2C19) | intrinsic activity at MT1 (MT1 receptor)
1 | COc1ccc2ncn(CCNC(C)=O)c2c1 [N-[2-(6-methoxybenzimidazol-1-yl)-ethyl]acetamide] | approximately 3,200 times | – | – | – | – | – | – | – | – | – | –
2 | COc1cc2c(cc1Cl)nc(OC)n2CCNC(C)=O [IA2-143] | – | 108 min | higher | lower | – | – | – | – | – | – | –
3 | CCOc1nc2ccc(OC)cc2n1CCCNC(C)=O [IA2-120] | – | 53 min | higher | lower | >120 min | >120 min | – | – | – | – | –
4 | CCOc1nc2cc(Cl)c(OC)cc2n1CCCNC(C)=O [IA2-142] | – | >120.0 min | higher | lower | >120 min | >120 min | – | – | – | – | –
5 | COc1ccc2cccc(CCNC(C)=O)c2c1 [IA2-76 (agomelatine), agomelatine] | – | 50 min | – | – | 25 min | 48 min | high affinity | agonist | Around 90% | 10% | agonist
6 | CCOc1nc2cc(Cl)c(OC)cc2n1CCNC(C)=O [IA2-121] | – | 52 min | higher | lower | >120 min | >120 min | – | – | – | – | –
